These results are taken from US20110301142A1, “ANTAGONISTS OF LYSOPHOSPHATIDIC ACID RECEPTORS” (priority 2008, published 2011).

pIC50: −log10 of the molar value.

The subject of test [1] is A2058 human melanoma cells. In words: LPA1 chemotaxis assay. It is filed as cell-based. Particulars: 100 nM LPA, read-out: IC50, inhibition of LPA-driven chemotaxis. As for the experimental part: Chemotaxis of the A2058 human melanoma cells was measured using the Neuroprobe ChemoTx® System plates (8 μm pore size, 5.7 mm diameter sites). The filter sites were coated with 0.001% fibronectin (Sigma) in 20 mM Hepes, pH 7.4 and allowed to dry. A2058 cells were serum-starved for 24 hours, then harvested with Cell Stripper and resuspended in DMEM containing 0.1% fatty-acid-free bovine serum albumin (BSA) to a concentration of 1×10^6/ml. Cells were mixed with an equal volume of test compound (2×) in DMEM containing 0.1% fatty-acid-free BSA and incubated at 37° C. for 15 minutes. LPA (100 nM in DMEM containing 0.1% fatty-acid-free BSA) or vehicle was added to each well of the lower chamber and 50 μl of the cell suspension/test compound mix was applied to the upper portion of the ChemoTx plate. Plates were incubated at 37° C. for three hours and then the cells removed from the upper portion by rinsing with PBS and scraping. The filter was dried then stained with HEMA 3 Staining System (Fisher Scientific). The absorbance of the filter was read at 590 nm and IC50s were determined using Symyx Assay Explorer.

A further test concerns Female C57BL/6 mice. In words: Mouse carbon tetrachloride (CCl4)-induced liver fibrosis model. In kind it is in vivo. Particulars: for collagen deposition in the liver as compared to the untreated group: CCl4-induced liver fibrosis. As for the experimental part: Female C57BL/6 mice (Harlan, 20-25 g) housed 4/cage are given free access to food and water and allowed to acclimate for at least 7 days prior to test initiation. After the habituation phase, mice receive CCl4 (0.5-1.0 ml/kg body weight) diluted in corn oil vehicle (100 μL volume) via i.p. injection twice a week for 4-6 weeks. (Higazi, A. A. et al., Clin Exp Immunol. 2008 April; 152(1):163-73. Epub 2008 Feb. 14.). Control mice receive an equivalent volume of corn oil vehicle only. Test compound or vehicle is delivered po, ip or sc daily. At the end of the study (4-6 weeks after first i.p. injection of CCl4), mice are sacrificed using inhaled isoflurane and blood is drawn via cardiac puncture for subsequent analysis of ALT/AST levels. The liver is harvested, and one half of the liver is frozen at −80° C. and the other half is fixed in 10% neutral buffered formalin for histological assessment of liver fibrosis using light microscopy (10× magnification). Liver tissue homogenates are analyzed for collagen levels using Sircol (Biocolor Ltd, UK). Fixed Liver tissue is stained using hematoxylin and eosin (H&E) and trichrome and liver fibrosis is determined by quantitative, computer-assisted densitometry of collagen in liver tissue sections using light microscopy. Plasma and liver tissue lysates are also analyzed for concentrations of inflammatory, pro-fibrotic and tissue injury biomarkers including transforming growth factor β1, hyaluronic acid, tissue inhibitor of metalloproteinase-1, matrix matelloproteinase-7, connective tissue growth factor and lactate dehydrogenase activity, using commercially available ELISA. The resulting data are plotted using Graphpad prism and statistical differences between groups determined.

For a further test, the target named is T1, human LPA3 (Homo sapiens, UniProt Q9UBY5).
T1 construct: The full-length cDNA fragment for human LPA3 was obtained by PCR from the vector; expressed in transfected cells; cDNA from the Missouri S&T cDNA Resource Center
T1 sequence (Q9UBY5 1-353): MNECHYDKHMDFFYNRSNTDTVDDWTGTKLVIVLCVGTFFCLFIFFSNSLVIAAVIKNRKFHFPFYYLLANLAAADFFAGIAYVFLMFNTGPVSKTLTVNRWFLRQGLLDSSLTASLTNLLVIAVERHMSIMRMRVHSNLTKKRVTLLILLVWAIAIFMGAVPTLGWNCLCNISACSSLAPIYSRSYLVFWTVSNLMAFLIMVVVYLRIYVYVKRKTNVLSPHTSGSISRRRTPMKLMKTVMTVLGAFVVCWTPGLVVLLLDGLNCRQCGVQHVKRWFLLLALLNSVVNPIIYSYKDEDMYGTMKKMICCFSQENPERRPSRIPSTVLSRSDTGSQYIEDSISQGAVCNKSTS
In words: LPA3 calcium flux assay. In kind it is cell-based. Particulars: Human LPA3 expressing CHO cells, stimulated with 10 nM LPA; read-out: HLPA3 Ca Flux IC50. The gist of the method:
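Stably transfected CHO cells, serum-starved overnight, loaded with Calcium 4 dye 1 h at 37 °C in HBSS/20 mM Hepes with 0.3% fatty-acid-free HSA. Compounds preincubated 30 min at room temperature, then cells stimulated with 10 nM LPA; intracellular Ca2+ read by fluorescence; IC50 from titration curves.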

With `Cc1noc(-c2ccc(-c3ccc(CC(=O)O)cc3)cc2)c1NC(=O)O[C@H](C)c1ccccc1Cl` [Compound 1-88, (4′-{4-[(R)-1-(2-Chloro-phenyl)-ethoxycarbonylamino]-3-methyl-isoxazol-5-yl}-biphenyl-4-yl)-acetic acid], the results for the pIC50 (in test [1]; on human LPA3) were > 6.52 and 4.30 to 6.00, respectively. In the test on Female C57BL/6 mice (30 mg/kg, po, qd), the “effect on collagen deposition compared to pirfenidone” value is listed as “same effect on collagen deposition as pirfenidone”. In addition, the “collagen deposition in the liver as compared to the untreated group” value with Female C57BL/6 mice is listed as “significantly reduced”.
Turning to `Cc1noc(-c2ccc(-c3ccc(CC(=O)O)cc3)cc2)c1NC(=O)O[C@H](C)c1ccccc1` [Compound 1-115], the pIC50 in test [1] is > 6.52; at human LPA3, 4.30 to 6.00. In addition, the “collagen deposition in the liver as compared to the untreated group” value with Female C57BL/6 mice is on record as “significantly reduced”.
